The record followed here is patent publication US7951956B2, “Benzoimidazole compound capable of inhibiting prostaglandin D synthetase” (Taiho Pharmaceuticals Co., Ltd., priority 2005, dated 2011).

A value given as a limit tells only on which side of the number the result lay.

The test concerns the target human hematopoietic synthase (Homo sapiens, UniProt O60760). Kind of test: Hematopoietic synthase inhibitory activity (Experiment 1). It is filed as biochemical. The following applies: [14C] prostaglandin H2 10 μM, preincubated at 25° C. for 5 minutes, 1 minute reaction; read-out: Concentration of Pharmaceutical Compound Required to Inhibit 50% of Hematopoietic Synthase. The procedure:
Experiment 1 was carried out according to the method of Urade, Y. et al. (J. Biol. Chem. 262, 3820-3825, (1987)). More specifically, the reaction mixture (49 μL); 100 mM Tris-HCl (pH 8.0), 1 mM reduced glutathione, 0.1 mg/mL γ-globulin, and human hematopoietic synthase (quantum sufficient), and a test compound (final concentration: 0.01-100 μM) were preincubated at 25° C. for 5 minutes. In place of the test compound, a DMSO solution (final concentration: 1%) was used in the solvent control group (Control Group). Subsequently, 1 μL of [^14C] prostaglandin H2 (final concentration: 10 μM) was added to start the reaction. One minute after the start of the reaction, 250 μL of a reaction stopper solution (diethylether/methanol/1M citric acid (30/4/1) cooled to −20° C. was added to stop the reaction.
Thereafter, 50 μL of the upper layer portion (organic solvent phase) was applied to a TLC plate and developed at −20° C. for 45 minutes (developer: diethylether/methanol/acetic acid (capacity ratio=90/2/1)). After drying the plate, the plate was exposed to an imaging plate for 1 to 24 hours, and the radioactivity corresponding to prostaglandin D2 was analyzed using an image analyzer (product of FUJIFILM Corporation). The area (%) occupied by the prostaglandin D2 band per lane was calculated, and the concentration of the test compound required to inhibit 50% of the hematopoietic synthase (IC50 value) was calculated by comparison with the Control group in each experiment.

Sequence of human hematopoietic synthase (O60760 whole entry): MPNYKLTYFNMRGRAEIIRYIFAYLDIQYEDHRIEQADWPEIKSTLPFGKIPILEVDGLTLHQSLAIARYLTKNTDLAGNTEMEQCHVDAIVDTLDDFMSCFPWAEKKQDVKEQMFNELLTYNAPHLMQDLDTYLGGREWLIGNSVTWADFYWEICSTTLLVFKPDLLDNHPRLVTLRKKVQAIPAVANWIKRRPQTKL

Turning to `Cc1[nH]c(C(=O)Nc2ccc3c(c2)CCO3)c(C)c1-c1nc2cc(C(=O)c3ccccc3)ccc2[nH]1` [Compound 30, N-(2,3-Dihydrobenzofuran-5-yl)-4-(5-benzoylbenzimidazol-2-yl)-3,5-dimethylpyrrole-2-carboxamide], the IC50 was 113 nM.

On to `Cc1[nH]c(C(=O)NCCN2CCCC2)c(C)c1-c1nc2cc(C(=O)c3ccccc3)ccc2[nH]1` [Compound 23, N-(2-Pyrrolidine-1-yl-ethyl)-4-(5-benzoylbenzimidazol-2-yl)-3,5-dimethylpyrrole-2-carboxamide], for which the IC50 was 223 nM.

In the case of `CCOC(=O)C1CCN(C(=O)c2[nH]c(C)c(-c3nc4cc(C(=O)c5ccccc5)ccc4[nH]3)c2C)CC1` [Compound 44, ((4-(5-Benzoylbenzimidazol-2-yl)-3,5-dimethylpyrrol-2-yl)-carbonyl)-4-ethoxycarbonylpiperidine], the IC50 was determined as 1670 nM.

For `Cc1[nH]c(C(=O)NCC2=NNC(=O)CC2)c(C)c1-c1nc2cc(C(=O)c3ccccc3)ccc2[nH]1` [Compound 38, N-(2,3,4,5-Tetrahydro-3-oxo-pyridazine-6-yl-methyl)-4-(5-benzoylbenzimidazol-2-yl)-3,5-dimethylpyrrole-2-carboxamide], the IC50 was found to be 136 nM.

`Cc1oc(C(=O)NCc2ccc3c(c2)OCO3)c(C)c1-c1nc2cc(C(=O)c3ccccc3)ccc2[nH]1` [Compound 4, N-(3,4-Methylenedioxyphenyl)methyl-4-(5-benzoylbenzimidazol-2-yl)-3,5-dimethylfuran-2-carboxamide]: the IC50 turned out to be 278 nM.

As to `Cc1[nH]c(C(=O)N2CCC(C(=O)NCCCN(C)C)CC2)c(C)c1-c1nc2cc(C(=O)c3ccccc3)ccc2[nH]1` [Compound 48, N-(3-Dimethylaminopropyl)-1-((4-(5-benzoylbenzimidazol-2-yl)-3,5-dimethylpyrrol-2-yl)-carbonyl)piperidine-4-carboxamide], the IC50 came out at 124 nM.

With `Cc1[nH]c(C(=O)NCC2CCCCC2)c(C)c1-c1nc2cc(C(=O)c3ccccc3)ccc2[nH]1` [Compound 25, N-(Cyclohexylmethyl)-4-(5-benzoylbenzimidazol-2-yl)-3,5-dimethylpyrrole-2-carboxamide], the IC50 is 286 nM.

For the compound `CC(=O)NCCNC(=O)c1[nH]c(C)c(-c2nc3cc(C(=O)c4ccccc4)ccc3[nH]2)c1C` [Compound 18, N-(2-Acetamidoethyl)-4-(5-benzoylbenzimidazol-2-yl)-3,5-dimethylpyrrole-2-carboxamide], the IC50 is 80 nM.

`Cc1[nH]c(C(=O)NCC(=O)O)c(C)c1-c1nc2cc(C(=O)c3ccccc3)ccc2[nH]1` [Compound 22, N-(1-Carboxymethyl)-4-(5-benzoylbenzimidazol-2-yl)-3,5-dimethylpyrrole-2-carboxamide]: the IC50 is 829 nM.

On to `O=C(c1ccccc1)c1ccc2[nH]c(-c3ccc(C(=O)N4CCSC4)o3)nc2c1` [Compound 63], for which the IC50 was 1250 nM.

`Cc1[nH]c(C(=O)N2CCC(O)CC2)c(C)c1-c1nc2cc(C(=O)c3ccccc3)ccc2[nH]1` [Compound 43, ((4-(5-Benzoylbenzimidazol-2-yl)-3,5-dimethylpyrrol-2-yl)-carbonyl)-4-hydroxypiperidine]: the IC50 was found to be 791 nM.

Turning to `CCOC(=O)c1[nH]c(C)c(-c2nc3cc(Sc4ccncc4)c(Oc4ccccc4)cc3[nH]2)c1C` [Comparative Example 1, 4-(5-(4-Pyridylsulfenyl)-6-phenoxybenzimidazole-2-yl)-3,5-dimethylpyrrole-2-carboxylic acid ethyl ester, reference compound], the IC50 is more than 30000 nM.

Regarding `Cc1[nH]c(C(=O)N(C)CCN(C)C)c(C)c1-c1nc2cc(C(=O)c3ccccc3)ccc2[nH]1` [Compound 11, N-Methyl-N-(2-dimethylaminoethyl)-4-(5-benzoylbenzimidazol-2-yl)-3,5-dimethylpyrrole-2-carboxamide], the IC50 was 269 nM.

As for `Cc1[nH]c(C(=O)N2CCC(C(=O)NCC3CCCCC3)CC2)c(C)c1-c1nc2cc(C(=O)c3ccccc3)ccc2[nH]1` [Compound 50, N-Cyclohexylmethyl-1-((4-(5-benzoylbenzimidazol-2-yl)-3,5-dimethylpyrrol-2-yl)-carbonyl)piperidine-4-carboxamide], the IC50 amounted to 843 nM.

Turning to `Cc1[nH]c(C(=O)NCCN2CCCCC2)c(C)c1-c1nc2cc(C(=O)c3ccccc3)ccc2[nH]1` [Compound 24, N-(2-Piperidine-1-yl-ethyl)-4-(5-benzoylbenzimidazol-2-yl)-3,5-dimethylpyrrole-2-carboxamide], the IC50 is 496 nM.

With `Cc1[nH]c(C(=O)NCCc2ccccn2)c(C)c1-c1nc2cc(Oc3ccccc3)ccc2[nH]1` [Compound 72, N-(2-(2-Pyridyl)ethyl)-4-(5-phenoxybenzimidazole-2-yl)-3,5-dimethylpyrrole-2-carboxamide], the IC50 worked out at 209 nM.

As for `Cc1[nH]c(C(=O)N2CCN(c3ccccc3)CC2)c(C)c1-c1nc2cc(C(=O)c3ccccc3)ccc2[nH]1` [Compound 41, ((4-(5-Benzoylbenzimidazol-2-yl)-3,5-dimethylpyrrol-2-yl)-carbonyl)-4-phenylpiperazine], the IC50 is 1450 nM.

As to `NC(=O)c1ccc(-c2nc3cc(C(=O)c4ccccc4)ccc3[nH]2)o1` [Compound 60, 5-(5-Benzoylbenzimidazol-2-yl)-furan-2-carboxamide], the IC50 was 4360 nM.

Turning to `CN(C)Cc1ccc(-c2nc3cc(C(=O)c4ccccc4)ccc3[nH]2)o1` [Compound 56, 2-(5-Dimethylaminomethyl-furan-2-yl)-5-benzoylbenzimidazole], the IC50 was determined as 4780 nM.

With `Cc1[nH]c(C(=O)NCc2ccc3c(c2)OCO3)c(C)c1-c1nc2cc(C(=O)c3ccccc3)ccc2[nH]1` [Compound 37, N-(3,4-Methylenedioxyphenylmethyl)-4-(5-benzoylbenzimidazol-2-yl)-3,5-dimethylpyrrole-2-carboxamide], the IC50 is 213 nM.

As to `O=C(c1ccccc1)c1ccc2[nH]c(-c3ccc(P(=O)(O)O)o3)nc2c1` [Comparative Example 3, 5-Benzophenone-2-(2-phosphono-5-furanyl)benzimidazole dihydrate, reference compound], the IC50 was determined as 29300 nM.

As to `O=C(c1ccccc1)c1ccc2[nH]c(-c3ccc(Br)o3)nc2c1` [Compound 58, 2-(5-Bromo-furan-2-yl)-5-benzoylbenzimidazole], the IC50 was found to be 2370 nM.

`COCCCNC(=O)C1CCN(C(=O)c2[nH]c(C)c(-c3nc4cc(C(=O)c5ccccc5)ccc4[nH]3)c2C)CC1` [Compound 49, N-(3-Methoxypropyl)-1-((4-(5-benzoylbenzimidazol-2-yl)-3,5-dimethylpyrrol-2-yl)-carbonyl)piperidine-4-carboxamide]: the IC50 stood at 649 nM.

For the compound `CONC(=O)c1[nH]c(C)c(-c2nc3cc(Oc4ccccc4)ccc3[nH]2)c1C` [Compound 73, N-(Methoxy)-4-(5-phenoxybenzimidazole-2-yl)-3,5-dimethylpyrrole-2-carboxamide], the IC50 stood at 240 nM.

With `Cc1cc(NC(=O)c2[nH]c(C)c(-c3nc4cc(C(=O)c5ccccc5)ccc4[nH]3)c2C)no1` [Compound 26, N-(5-Methylisoxazole-3-yl)-4-(5-benzoylbenzimidazol-2-yl)-3,5-dimethylpyrrole-2-carboxamide], the IC50 turned out to be 149 nM.

For `Cc1[nH]c(C(=O)Nc2ccc(C#N)cc2)c(C)c1-c1nc2cc(C(=O)c3ccccc3)ccc2[nH]1` [Compound 27, N-(4-Cyanophenyl)-4-(5-benzoylbenzimidazol-2-yl)-3,5-dimethylpyrrole-2-carboxamide], the IC50 was determined as 309 nM.

For the compound `Cc1[nH]c(C(=O)NCCc2ccccn2)c(C)c1-c1nc2cc(C(=O)c3ccccc3)ccc2[nH]1` [Compound 34, N-(2-(2-Pyridyl)ethyl)-4-(5-benzoylbenzimidazol-2-yl)-3,5-dimethylpyrrole-2-carboxamide], the IC50 is 72 nM.

On to `CCOC(=O)CCNC(=O)c1[nH]c(C)c(-c2nc3cc(C(=O)c4ccccc4)ccc3[nH]2)c1C` [Compound 19, N-(2-Ethoxycarbonylethyl)-4-(5-benzoylbenzimidazol-2-yl)-3,5-dimethylpyrrole-2-carboxamide], for which the IC50 is 874 nM.

For the compound `Cc1[nH]c(C(=O)NCc2ccc(Cl)c(Cl)c2)c(C)c1-c1nc2cc(C(=O)c3ccccc3)ccc2[nH]1` [Compound 35, N-(3,4-Dichlorobenzyl)-4-(5-benzoylbenzimidazol-2-yl)-3,5-dimethylpyrrole-2-carboxamide], the IC50 worked out at 746 nM.

On to `Cc1[nH]c(C(=O)N2CCCC2)c(C)c1-c1nc2cc(C(=O)c3ccccc3)ccc2[nH]1` [Compound 39, ((4-(5-Benzoylbenzimidazol-2-yl)-3,5-dimethylpyrrol-2-yl)-carbonyl)pyrrolidine], for which the IC50 is 351 nM.

For the compound `Cc1[nH]c(C(=O)N2CCOCC2)c(C)c1-c1nc2cc(Oc3ccccc3)ccc2[nH]1` [Compound 71, ((4-(5-Phenoxybenzimidazole-2-yl)-3,5-dimethylpyrrol-2-yl)-2-carbonyl)morpholine], the IC50 turned out to be 870 nM.

As to `Cc1[nH]c(C#N)c(C)c1-c1nc2cc(Oc3ccccc3)ccc2[nH]1` [Compound 75, 2-(2-Cyano-3,5-dimethylpyrrol-4-yl)-5-phenoxybenzimidazole], the IC50 was 218 nM.
